Counter-ions that a name gives are not always drawn.
Legend:
CDK9/Cyclin T1 = CDK9/Cyclin T1 (Homo sapiens (Human), UniProt P50750); assay: CDK9 enzyme assay (LANCE ULight TR-FRET kinase assay); format: biochemical; settings: 1000 μM ATP, 100 nM ULight MBP, kinase reaction 1 hour
Procedure: CDK9 enzyme activities were measured using LANCE ULight TR-FRET kinase assay reagents (PerkinElmer, Waltham, Mass.). Compounds were diluted in 100% DMSO then diluted with 1:10 in serine/threonine kinase assay buffer containing 20 mM HEPES, 10 mM MgCl2, […], and 0.0075% Triton X-100. Equal volume of the compound dilutions was added to a final reaction mixture containing LANCE detection buffer (PerkinElmer CR97-100), 100 nM ULight MBP (PerkinElmer TRF0109M), 1000 μM ATP, and CDK9/Cyclin T1 (Carna Biosciences 04-110). The kinase reaction was carried out for 1 hour before addition of stopping buffer to a final of 20 mM EDTA and 0.5 nM of LANCE Ultra Europium anti-phospho-MBP antibody (PerkinElmer TRF0201M) in LANCE detection buffer. The reaction was incubated for 1 hour and the signal was read in Envision in TR-FRET mode (excitation at 320 nm and emission at 615/665 nm).

H929 cells = assay: Cell viability assay (Cell TiterGlo); format: cell-based; settings: Homo sapiens, NCI-H929, 24 hours at 37° C., Cell TiterGlo luminescence
Procedure: The cell viability assay was performed using H929 cells. Cells were seeded in 96-well plates at 10,000 cells/well and, after overnight incubation, treated with compounds in a dose response of 3-fold dilutions from 10 μM to 0.005 μM ([…], 0.1% final DMSO concentration). After 24 hours at 37° C., cell viability was measured using Cell TiterGlo reagent (Promega) with a luminescence reader.

CDK9/Cyclin T1, sequence (P50750 whole entry): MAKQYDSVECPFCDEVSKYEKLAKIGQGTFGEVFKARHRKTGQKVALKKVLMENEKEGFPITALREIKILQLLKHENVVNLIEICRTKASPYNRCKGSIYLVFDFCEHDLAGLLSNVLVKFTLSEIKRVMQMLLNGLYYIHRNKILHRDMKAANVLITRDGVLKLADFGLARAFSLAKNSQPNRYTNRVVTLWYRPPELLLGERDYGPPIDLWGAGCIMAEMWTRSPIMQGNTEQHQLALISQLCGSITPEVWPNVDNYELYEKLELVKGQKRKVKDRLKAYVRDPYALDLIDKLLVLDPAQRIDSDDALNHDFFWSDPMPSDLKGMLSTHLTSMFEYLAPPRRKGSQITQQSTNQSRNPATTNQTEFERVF
CDK9/Cyclin T1, sequence (O60563 whole entry partner): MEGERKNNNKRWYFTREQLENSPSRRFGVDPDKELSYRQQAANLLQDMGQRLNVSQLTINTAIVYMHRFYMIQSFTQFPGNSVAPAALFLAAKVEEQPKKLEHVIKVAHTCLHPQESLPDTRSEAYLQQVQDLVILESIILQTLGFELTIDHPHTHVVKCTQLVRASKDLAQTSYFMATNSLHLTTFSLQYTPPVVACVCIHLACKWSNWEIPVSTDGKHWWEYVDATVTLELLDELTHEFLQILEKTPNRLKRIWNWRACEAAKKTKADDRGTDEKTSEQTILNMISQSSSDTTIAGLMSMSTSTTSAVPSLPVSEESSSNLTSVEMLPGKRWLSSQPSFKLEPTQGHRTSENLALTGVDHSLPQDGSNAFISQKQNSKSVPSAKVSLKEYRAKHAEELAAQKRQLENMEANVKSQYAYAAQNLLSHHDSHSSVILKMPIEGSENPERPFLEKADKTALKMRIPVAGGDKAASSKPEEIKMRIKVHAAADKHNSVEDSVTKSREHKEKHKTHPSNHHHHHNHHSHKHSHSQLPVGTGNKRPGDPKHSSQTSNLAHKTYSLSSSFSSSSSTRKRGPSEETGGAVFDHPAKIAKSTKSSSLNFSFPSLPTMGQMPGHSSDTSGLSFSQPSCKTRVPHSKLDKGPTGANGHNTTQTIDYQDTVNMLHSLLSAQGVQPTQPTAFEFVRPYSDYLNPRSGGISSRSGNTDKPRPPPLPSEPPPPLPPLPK

| IC50 (CDK9/Cyclin T1) [nM] | IC50 (H929 cells) [nM] | Structure (SMILES) |
| --- | --- | --- |
| – | 940 | CN1Cc2c(C3=CCN(C(=O)OC(C)(C)C)CC3)[nH]c3nccc(c23)-c2cc(F)ccc21 [Example 2, tert-butyl 4-(10-fluoro-7-methyl-6,7-dihydro-4H-3,4,7-triazadibenzo[cd,f]azulen-5-yl)-3,6-dihydropyridine-1(2H)-carboxylate] |
| 47 | 590 | CCOC(=O)NS(=O)(=O)N1CC=C(c2[nH]c3nccc4c3c2CN(C)c2ccc(F)cc2-4)CC1 [Example 3, ethyl{[4-(10-fluoro-7-methyl-6,7-dihydro-4H-3,4,7-triazadibenzo[cd,f]azulen-5-yl)-3,6-dihydropyridin-1(2H)-yl]sulfonyl}carbamate] |
| 25 | 150 | CN1Cc2c(C3=CCN(S(C)(=O)=O)CC3)[nH]c3nccc(c23)-c2cc(F)ccc21 [Example 4, 10-fluoro-7-methyl-5-[1-(methylsulfonyl)-1,2,3,6-tetrahydropyridin-4-yl]-6,7-dihydro-4H-3,4,7-triazadibenzo[cd,f]azulene] |
| 62 | 730 | CS(=O)(=O)N1CC=C(c2[nH]c3nccc4c3c2CNc2ccc(F)cc2-4)CC1 [Example 5, 10-fluoro-5-[1-(methylsulfonyl)-1,2,3,6-tetrahydropyridin-4-yl]-6,7-dihydro-4H-3,4,7-triazadibenzo[cd,f]azulene] |
| 340 | 2100 | CCCN1Cc2c(C3=CCN(S(C)(=O)=O)CC3)[nH]c3nccc(c23)-c2cc(F)ccc21 [Example 6, 10-fluoro-5-[1-(methylsulfonyl)-1,2,3,6-tetrahydropyridin-4-yl]-7-propyl-6,7-dihydro-4H-3,4,7-triazadibenzo[cd,f]azulene] |
| 800 | 3300 | CS(=O)(=O)N1CC=C(c2[nH]c3nccc4c3c2CN(CC2CCOCC2)c2ccc(F)cc2-4)CC1 [Example 7, 10-fluoro-5-[1-(methylsulfonyl)-1,2,3,6-tetrahydropyridin-4-yl]-7-(tetrahydro-2H-pyran-4-ylmethyl)-6,7-dihydro-4H-3,4,7-triazadibenzo[cd,f]azulene] |
| 1400 | – | CCC1c2c(C3=CCN(C(=O)OC(C)(C)C)CC3)[nH]c3nccc(c23)-c2cc(F)ccc2N1C (stereo not drawn) [Example 8, tert-butyl 4-(6-ethyl-10-fluoro-7-methyl-6,7-dihydro-4H-3,4,7-triazadibenzo[cd,f]azulen-5-yl)-3,6-dihydropyridine-1(2H)-carboxylate] |
| – | 93 | CNC(=O)N1CC=C(c2[nH]c3nccc4c3c2CN(C)c2ccc(F)cc2-4)CC1 [Example 13, 4-(10-fluoro-7-methyl-6,7-dihydro-4H-3,4,7-triazadibenzo[cd,f]azulen-5-yl)-N-methyl-3,6-dihydropyridine-1(2H)-carboxamide] |
| 2800 | – | CN1Cc2c(C3CCN(CC(=O)OC(C)(C)C)CC3)[nH]c3nccc(c23)-c2cc(F)ccc21 [Example 22, tert-butyl[4-(10-fluoro-7-methyl-6,7-dihydro-4H-3,4,7-triazadibenzo[cd,f]azulen-5-yl)piperidin-1-yl]acetate] |
| 150 | – | CN1Cc2c(C3CCN(CC(=O)O)CC3)[nH]c3nccc(c23)-c2cc(F)ccc21 [Example 23, [4-(10-fluoro-7-methyl-6,7-dihydro-4H-3,4,7-triazadibenzo[cd,f]azulen-5-yl)piperidin-1-yl]acetic acid] |
| – | 130 | CN1Cc2c(C3=CCN(S(C)(=O)=O)CC3)[nH]c3ncc(F)c(c23)-c2cc(F)ccc21 [Example 68, 1,10-difluoro-7-methyl-5-[1-(methylsulfonyl)-1,2,3,6-tetrahydropyridin-4-yl]-6,7-dihydro-4H-3,4,7-triazadibenzo[cd,f]azulene] |
| 240 | – | CN1Cc2c(C3=CCCN(CC(=O)O)C3)[nH]c3nccc(c23)-c2cc(F)ccc21 [Example 112, [5-(10-fluoro-7-methyl-6,7-dihydro-4H-3,4,7-triazadibenzo[cd,f]azulen-5-yl)-3,6-dihydropyridin-1(2H)-yl]acetic acid] |
| 58 | – | COC(=O)C[C@H]1CC[C@H](N2CC=C(c3[nH]c4nccc5c4c3CN(C)c3cc(F)c(F)cc3-5)CC2)CC1 [Example 133, methyl{trans-4-[4-(9,10-difluoro-7-methyl-6,7-dihydro-4H-3,4,7-triazadibenzo[cd,f]azulen-5-yl)-3,6-dihydropyridin-1(2H)-yl]cyclohexyl}acetate] |
| 84 | – | CC(C(=O)O)=C1CCC(N2CC=C(c3[nH]c4nccc5c4c3CN(C)c3ccc(F)cc3-5)CC2)CC1 (stereo not drawn) [Example 176, 2-{4-[4-(10-fluoro-7-methyl-6,7-dihydro-4H-3,4,7-triazadibenzo[cd,f]azulen-5-yl)-3,6-dihydropyridin-1(2H)-yl]cyclohexylidene}propanoic acid] |

| Structure (SMILES) | IC50 (CDK9/Cyclin T1) [nM] | IC50 (H929 cells) [nM] |
| --- | --- | --- |
| CN1Cc2c(C3=CCNCC3)[nH]c3nccc(c23)-c2cc(F)ccc21 [Example 1, 10-fluoro-7-methyl-5-(1,2,3,6-tetrahydropyridin-4-yl)-6,7-dihydro-4H-3,4,7-triazadibenzo[cd,f]azulene] | 21 | 40 |
| CCC1c2c(C3=CCNCC3)[nH]c3nccc(c23)-c2cc(F)ccc2N1C (stereo not drawn) [Example 9, 6-ethyl-10-fluoro-7-methyl-5-(1,2,3,6-tetrahydropyridin-4-yl)-6,7-dihydro-4H-3,4,7-triazadibenzo[cd,f]azulene dihydrochloride] | 48 | 10 |
| CN1c2ccc(F)cc2-c2ccnc3[nH]c(C4=CCNCC4)c(c23)C1c1cnn(C)c1 (stereo not drawn) [Example 10, 10-fluoro-7-methyl-6-(1-methyl-1H-pyrazol-4-yl)-5-(1,2,3,6-tetrahydropyridin-4-yl)-6,7-dihydro-4H-3,4,7-triazadibenzo[cd,f]azulene] | 230 | 360 |
| CN(CCO)C(=O)CN1CC=C(c2[nH]c3ncc(F)c4c3c2CN(C)c2ccc(F)cc2-4)CC1 [Example 71, 2-[4-(1,10-difluoro-7-methyl-6,7-dihydro-4H-3,4,7-triazadibenzo[cd,f]azulen-5-yl)-3,6-dihydropyridin-1(2H)-yl]-N-(2-hydroxyethyl)-N-methylacetamide] | – | 21 |
| CN1Cc2c(C3=CCN([C@H]4CC[C@H](CC(=O)O)CC4)CC3)[nH]c3nccc(c23)-c2ccccc21 [Example 169, {trans-4-[4-(7-methyl-6,7-dihydro-4H-3,4,7-triazadibenzo[cd,f]azulen-5-yl)-3,6-dihydropyridin-1(2H)-yl]cyclohexyl}acetic acid] | 90 | – |
| CN1Cc2c(C3=CCN([C@H]4CC[C@@H](CC(=O)O)CC4)CC3)[nH]c3nccc(c23)-c2ccccc21 [Example 170, {cis-4-[4-(7-methyl-6,7-dihydro-4H-3,4,7-triazadibenzo[cd,f]azulen-5-yl)-3,6-dihydropyridin-1(2H)-yl]cyclohexyl}acetic acid] | 110 | – |
| CN1Cc2c(C3=CCN([C@H]4CC[C@H](C(=O)O)CC4)CC3)[nH]c3nccc(c23)-c2ccccc21 [Example 171, trans-4-[4-(7-methyl-6,7-dihydro-4H-3,4,7-triazadibenzo[cd,f]azulen-5-yl)-3,6-dihydropyridin-1(2H)-yl]cyclohexanecarboxylic acid] | 150 | – |
| CN1Cc2c(C3=CCN(C4CCC(C(=O)O)CC4)CC3)[nH]c3nccc(c23)-c2ccccc21 (stereo not drawn) [Example 172, 4-[4-(7-methyl-6,7-dihydro-4H-3,4,7-triazadibenzo[cd,f]azulen-5-yl)-3,6-dihydropyridin-1(2H)-yl]cyclohexanecarboxylic acid] | 120 | – |
